Source: the NIST ThermoML archive (doi:10.1016/j.fluid.2010.06.020)

Conditions: Liquid, Ebulliometric method (Recirculating still)

CCC(O)CC [3-pentanol]
Conditions | vapor or sublimation pressure [kPa]
342.02 K | 14.66
345.41 K | 17.33
348.4 K | 20
351.07 K | 22.66
354.07 K | 26
356.77 K | 29.33
359.24 K | 32.66
360.62 K | 34.66
362.79 K | 38
364.81 K | 41.33
367.06 K | 45.33
369.16 K | 49.33
371.13 K | 53.33
372.99 K | 57.33
374.75 K | 61.33
376.95 K | 66.66
379.02 K | 71.99
380.97 K | 77.33
382.82 K | 82.66
385 K | 89.33
387.06 K | 95.99
387.65 K | 97.99

CC(C)C(C)O (stereo not given) [3-methyl-2-butanol]
Conditions | vapor or sublimation pressure [kPa]
352.84 K | 28.66
355.33 K | 32
357.63 K | 35.33
359.76 K | 38.66
361.74 K | 42
363.6 K | 45.33
365.69 K | 49.33
367.65 K | 53.33
369.5 K | 57.33
371.24 K | 61.33
372.9 K | 65.33
374.99 K | 70.66
376.95 K | 75.99
378.81 K | 81.33
380.58 K | 86.66
382.26 K | 91.99
383.87 K | 97.33
384.45 K | 99.33

CCCC(C)O (stereo not given) [pentan-2-ol]
Conditions | vapor or sublimation pressure [kPa]
350.91 K | 18.66
353.74 K | 21.33
356.29 K | 24
358.61 K | 26.66
361.26 K | 30
363.69 K | 33.33
365.92 K | 36.66
368 K | 40
370.31 K | 44
372.45 K | 48
374.46 K | 52
376.35 K | 55.99
378.13 K | 59.99
380.36 K | 65.33
382.45 K | 70.66
384.42 K | 75.99
386.27 K | 81.33
388.47 K | 87.99
390.53 K | 94.66
391.32 K | 97.33

CCC(C)CO (stereo not given) [2-methyl-1-butanol]
Conditions | vapor or sublimation pressure [kPa]
345.51 K | 9.333
350.44 K | 12
354.51 K | 14.66
358.02 K | 17.33
361.8 K | 20.66
365.12 K | 24
368.62 K | 28
371.74 K | 32
374.56 K | 36
377.13 K | 40
379.5 K | 44
382.05 K | 48.66
384.41 K | 53.33
386.92 K | 58.66
389.23 K | 63.99
391.4 K | 69.33
393.43 K | 74.66
395.35 K | 79.99
397.17 K | 85.33
398.9 K | 90.66
400.96 K | 97.33

CCC(C)(C)O [2-methylbutan-2-ol]
Conditions | vapor or sublimation pressure [kPa]
335.75 K | 19.33
339.03 K | 22.66
341.93 K | 26
344.54 K | 29.33
346.91 K | 32.66
349.1 K | 36
351.52 K | 40
353.75 K | 44
355.83 K | 48
357.78 K | 52
359.9 K | 56.66
361.88 K | 61.33
364.01 K | 66.66
366.01 K | 71.99
367.9 K | 77.33
369.69 K | 82.66
371.8 K | 89.33
373.79 K | 95.99
374.56 K | 98.66

CC(C)CCO [3-methylbutan-1-ol]
Conditions | vapor or sublimation pressure [kPa]
366.27 K | 22.66
369.95 K | 26.66
373.24 K | 30.66
376.14 K | 34.66
379.65 K | 40
382.78 K | 45.33
385.62 K | 50.66
388.23 K | 55.99
390.64 K | 61.33
392.88 K | 66.66
395.48 K | 73.33
397.9 K | 79.99
400.18 K | 86.66
402.32 K | 93.33
403.77 K | 97.99
